# Test system: yeast genes (level of expressed mRNA)
# Assay: DNA chip analysis of expressed mRNA of yeast genes after 2 h culture with a toxic chemical substance
# Type: cell-based, Saccharomyces cerevisiae S288C
# Method: Yeast (Saccharomyces cerevtisiae S288C (α SUC2mal mel gap2 CUP1)) were cultured at 25° C. on YPD medium (yeast extract 1%, polypepton 2%, glucose 2%). One of toxic chemical substances was added to the cell at logarithmic growth phase, and the cell was further cultured for two hours. Cell was cultured without any chemical substance in the same condition, and was used as control. Concentrations of the chemical substances were defined to inhibit the growth of the yeast but not lead to death.
# After the completion of cultivation, the culture was centrifuged to collect the cells. To the cells, sodium acetate buffer (50 mM sodium acetate, 10 mM EDTA, 1% SDS) was added, and the mixture was shaken at 65° C. for five minutes, followed by returning to room temperature, and obtaining the supernatant, which procedure was repeated two times. To the supernatant, ½ amount of a solution of phenol/chloroform was added, and the mixture was centrifuged to give a supernatant, which was added with an equal amount of chloroform, and the mixture was centrifuged to give a supernatant. To the supernatant, an equal amount of isopropanol containing 0.3 M sodium acetate was added, and the mixture was allowed to stand at room temperature for 30 minutes, after which the mixture was centrifuged to give a sediment of the whole RNAs. Seventy % ethanol was added to the sediment, and the mixture was again centrifuged to give a sediment, which was then dried and dissolved in water. mRNA was isolated from the whole RNAs as followings. In view of the fact that a poly A chain is attached to the 3′ terminus of mRNA, a polynucleotide having a poly T structure which was immobilized on the surface of latex beads was used to trap the mRNA, and then the mRNA was washed and eluted with spine column (Oligotex-dT30<Super>mRNA Purification Kit, Takara). Reverse transcription of the mRNA was conducted with a reverse transcriptase (Super Script II Reverse Transcriptase; catalogue No. 18064-014, GibcoBRL) using fluorescence-labeled nucleotides to give cDNAs that were introduced with Cy3-dUTP or Cy5-dUTP during the reverse transcription.
# The labeled cDNAs were dissolved in TE buffer (10 mM Tris-HCl/1 mM EDTA, pH8.0), and the solution was dropped on the DNA chip containing the whole genes of yeast (DNA Chip Research Inc. Japan) so that the cDNAs were hybridized on the DNA chip at 65° C. for over 12 hours. The fluoresces intensity of the DNA chip was read with a scanner, and the ratio relative to the fluorescence intensity resulting from the absence of chemical substance was estimated as the following, which is shown in Tables 1 to 9: [formula]
# In the Tables, “Intensity” indicated in the rightmost column is a value of the level of expressed mRNA of each gene in control cells as divided by the average level of the expressions of the whole genes.
substance,measurement,setting,value
sodium dodecylbenzosulfonate [(17)],level of expressed mRNA in the presence of chemical substance/in its absence,gene YAL012W,0.9
same,The level of expressed mRNA in the presence of chemical substance/absence: YAL014C,gene YAL014C,1.1
same,The level of expressed mRNA in the presence of chemical substance/absence: YAL017W,gene YAL017W,1.0
same,The level of expressed mRNA in the presence of chemical substance/absence: YAL018C,gene YAL018C,0.9
same,level of expressed mRNA in the presence of chemical substance/in its absence,gene YAL038W,1.0
same,level of expressed mRNA in the presence of chemical substance/in its absence,gene YAL044C,1.4
same,The level of expressed mRNA in the presence of chemical substance/absence: YAL049C,gene YAL049C,1.6
same,level of expressed mRNA in the presence of chemical substance/in its absence,gene YAL054C,1.5
same,The level of expressed mRNA in the presence of chemical substance/absence: YAR047C,gene YAR047C,1.7
same,The level of expressed mRNA in the presence of chemical substance/absence: YAR064W,gene YAR064W,0.9
same,level of expressed mRNA in the presence of chemical substance/in its absence,gene YAR071W,0.7
same,level of expressed mRNA in the presence of chemical substance/in its absence,gene YBL001C,1.6
same,The level of expressed mRNA in the presence of chemical substance/absence: YBL044W,gene YBL044W,0.8
same,The level of expressed mRNA in the presence of chemical substance/absence: YBL100C,gene YBL100C,0.8
same,The level of expressed mRNA in the presence of chemical substance/absence: YBR012C,gene YBR012C,1.4
same,The level of expressed mRNA in the presence of chemical substance/absence: YBR013C,gene YBR013C,1.4
same,level of expressed mRNA in the presence of chemical substance/in its absence,gene YBR014C,1.0
same,level of expressed mRNA in the presence of chemical substance/in its absence,gene YBR023C,0.7
same,level of expressed mRNA in the presence of chemical substance/in its absence,gene YBR029C,0.6
same,level of expressed mRNA in the presence of chemical substance/in its absence,gene YBR035C,1.5
same,level of expressed mRNA in the presence of chemical substance/in its absence,gene YBR050C,1.5
same,The level of expressed mRNA in the presence of chemical substance/absence: YBR051W,gene YBR051W,1.1
same,The level of expressed mRNA in the presence of chemical substance/absence: YBR063C,gene YBR063C,1.2
same,The level of expressed mRNA in the presence of chemical substance/absence: YBR066C,gene YBR066C,1.2
same,level of expressed mRNA in the presence of chemical substance/in its absence,gene YBR068C,1.1
same,level of expressed mRNA in the presence of chemical substance/in its absence,gene YBR111C,1.4
same,The level of expressed mRNA in the presence of chemical substance/absence: YBR124W,gene YBR124W,0.9
same,The level of expressed mRNA in the presence of chemical substance/absence: YBR129C,gene YBR129C,1.0
same,level of expressed mRNA in the presence of chemical substance/in its absence,gene YBR145W,1.7
same,The level of expressed mRNA in the presence of chemical substance/absence: YBR162C,gene YBR162C,1.2
same,level of expressed mRNA in the presence of chemical substance/in its absence,gene YBR183W,1.4
same,level of expressed mRNA in the presence of chemical substance/in its absence,gene YBR222C,0.8
same,The level of expressed mRNA in the presence of chemical substance/absence: YBR255W,gene YBR255W,1.0
same,The level of expressed mRNA in the presence of chemical substance/absence: YBR281C,gene YBR281C,0.7
same,The level of expressed mRNA in the presence of chemical substance/absence: YBR287W,gene YBR287W,3.2
same,level of expressed mRNA in the presence of chemical substance/in its absence,gene YBR299W,1.0
same,level of expressed mRNA in the presence of chemical substance/in its absence,gene YCL009C,1.1
same,The level of expressed mRNA in the presence of chemical substance/absence: YCL042W,gene YCL042W,0.8
same,The level of expressed mRNA in the presence of chemical substance/absence: YCL044C,gene YCL044C,0.9
same,The level of expressed mRNA in the presence of chemical substance/absence: YCL056C,gene YCL056C,1.2
same,level of expressed mRNA in the presence of chemical substance/in its absence,gene YCL064C,0.3
same,The level of expressed mRNA in the presence of chemical substance/absence: YCR007C,gene YCR007C,2.6
same,level of expressed mRNA in the presence of chemical substance/in its absence,gene YCR037C,1.4
same,level of expressed mRNA in the presence of chemical substance/in its absence,gene YCR048W,1.2
same,level of expressed mRNA in the presence of chemical substance/in its absence,gene YCR098C,1.7
same,level of expressed mRNA in the presence of chemical substance/in its absence,gene YDL022W,1.0
same,The level of expressed mRNA in the presence of chemical substance/absence: YDL046W,gene YDL046W,1.2
same,The level of expressed mRNA in the presence of chemical substance/absence: YDL089W,gene YDL089W,1.0
same,The level of expressed mRNA in the presence of chemical substance/absence: YDL173W,gene YDL173W,1.3
same,The level of expressed mRNA in the presence of chemical substance/absence: YDL193W,gene YDL193W,0.9
same,The level of expressed mRNA in the presence of chemical substance/absence: YDL233W,gene YDL233W,1.1
same,level of expressed mRNA in the presence of chemical substance/in its absence,gene YDR009W,1.2
same,level of expressed mRNA in the presence of chemical substance/in its absence,gene YDR019C,1.2
same,The level of expressed mRNA in the presence of chemical substance/absence: YDR071C,gene YDR071C,0.9
same,The level of expressed mRNA in the presence of chemical substance/absence: YDR078C,gene YDR078C,0.9
same,The level of expressed mRNA in the presence of chemical substance/absence: YDR090C,gene YDR090C,1.1
same,The level of expressed mRNA in the presence of chemical substance/absence: YDR109C,gene YDR109C,1.2
same,The level of expressed mRNA in the presence of chemical substance/absence: YDR128W,gene YDR128W,0.9
same,The level of expressed mRNA in the presence of chemical substance/absence: YDR133C,gene YDR133C,0.6
same,The level of expressed mRNA in the presence of chemical substance/absence: YDR140W,gene YDR140W,1.3
same,The level of expressed mRNA in the presence of chemical substance/absence: YDR221W,gene YDR221W,1.1
same,The level of expressed mRNA in the presence of chemical substance/absence: YDR250C,gene YDR250C,0.9
same,The level of expressed mRNA in the presence of chemical substance/absence: YDR271C,gene YDR271C,1.2
same,The level of expressed mRNA in the presence of chemical substance/absence: YDR278C,gene YDR278C,0.7
same,The level of expressed mRNA in the presence of chemical substance/absence: YDR281C,gene YDR281C,1.5
same,The level of expressed mRNA in the presence of chemical substance/absence: YDR316W,gene YDR316W,0.6
same,The level of expressed mRNA in the presence of chemical substance/absence: YDR338C,gene YDR338C,0.9
same,The level of expressed mRNA in the presence of chemical substance/absence: YDR366C,gene YDR366C,1.2
same,level of expressed mRNA in the presence of chemical substance/in its absence,gene YDR380W,0.8
same,level of expressed mRNA in the presence of chemical substance/in its absence,gene YDR410C,1.0
same,The level of expressed mRNA in the presence of chemical substance/absence: YDR421W,gene YDR421W,0.7
same,The level of expressed mRNA in the presence of chemical substance/absence: YDR425W,gene YDR425W,1.2
same,The level of expressed mRNA in the presence of chemical substance/absence: YDR485C,gene YDR485C,0.8
same,level of expressed mRNA in the presence of chemical substance/in its absence,gene YDR487C,1.5
same,level of expressed mRNA in the presence of chemical substance/in its absence,gene YDR502C,0.9
same,The level of expressed mRNA in the presence of chemical substance/absence: YDR504C,gene YDR504C,1.2
same,level of expressed mRNA in the presence of chemical substance/in its absence,gene YEL011W,1.4
same,level of expressed mRNA in the presence of chemical substance/in its absence,gene YEL020C,1.2
same,The level of expressed mRNA in the presence of chemical substance/absence: YEL044W,gene YEL044W,1.4
same,level of expressed mRNA in the presence of chemical substance/in its absence,gene YER026C,1.7
same,level of expressed mRNA in the presence of chemical substance/in its absence,gene YER069W,1.1
same,The level of expressed mRNA in the presence of chemical substance/absence: YER092W,gene YER092W,1.4
same,The level of expressed mRNA in the presence of chemical substance/absence: YER182W,gene YER182W,0.8
same,The level of expressed mRNA in the presence of chemical substance/absence: YFL042C,gene YFL042C,1.1
same,level of expressed mRNA in the presence of chemical substance/in its absence,gene YFR015C,1.3
same,The level of expressed mRNA in the presence of chemical substance/absence: YFR026C,gene YFR026C,1.1
same,The level of expressed mRNA in the presence of chemical substance/absence: YFR056C,gene YFR056C,1.1
same,level of expressed mRNA in the presence of chemical substance/in its absence,gene YGL001C,1.9
same,level of expressed mRNA in the presence of chemical substance/in its absence,gene YGL022W,0.9
same,level of expressed mRNA in the presence of chemical substance/in its absence,gene YGL039W,0.6
same,The level of expressed mRNA in the presence of chemical substance/absence: YGL041C,gene YGL041C,1.0
same,The level of expressed mRNA in the presence of chemical substance/absence: YGL045W,gene YGL045W,1.3
same,The level of expressed mRNA in the presence of chemical substance/absence: YGL057C,gene YGL057C,0.9
same,The level of expressed mRNA in the presence of chemical substance/absence: YGL088W,gene YGL088W,0.5

# — patent US20050112573A1, “Method of detecting toxic substance” (priority 2001, published 2005)
